A word on the IC50: it is the concentration that gives 50% inhibition. The low end stands for higher potency, the high end for lower potency.

The values that follow come from patent US9522881B2, “Hydroxyindole carboxylic acid based inhibitors for oncogenic Src homology-2 domain containing protein tyrosine phosphatase-2 (SHP2)” (Indiana University Research and Technology Corporation, priority 2013, dated 2016).

SMILES strings stand for the structures. “Also recorded” adds a separate entry of the source.

The target in one test is SHP1 (Homo sapiens (Human), UniProt P29350). Description: PTP selectivity panel, pNPP. The format is biochemical, mammalian.
In a further test the target is PTPH1 (Homo sapiens (Human), UniProt P26045). Kind of test: PTP selectivity panel, pNPP. The format is biochemical, mammalian. The conditions noted are these: pNPP at Km.
The target in the next test is PTP1B (Homo sapiens (Human), UniProt P18031). Kind of test: PTP selectivity panel, pNPP. The format is biochemical, mammalian.
The next test addresses PEZ (Homo sapiens (Human), UniProt Q15678). Description: PTP selectivity panel, pNPP. The format is biochemical, mammalian. The conditions noted are these: pNPP at Km.
In the next test the target is PTPμ (Homo sapiens (Human), UniProt P28827). Description: PTP selectivity panel, pNPP. The format is biochemical, mammalian. The conditions noted are these: pNPP at Km.
Another test has as its target mPTPA (Mycobacterium tuberculosis (strain ATCC 25618 / H37Rv), UniProt P9WIA1). Kind of test: PTP selectivity panel, pNPP. The test is classed as biochemical. The conditions noted are these: pNPP at Km.
The next test addresses PTPα (Homo sapiens (Human), UniProt P18433). Description: PTP selectivity panel, pNPP. The conditions noted are these: pNPP at Km. The format is biochemical, mammalian.
The next test addresses MKP5 (Homo sapiens (Human), UniProt Q9Y6W6). Description: PTP selectivity panel, pNPP. The note with it: pNPP at Km. The format is biochemical, mammalian.
Test [1] deals with EGF-induced Erk1/2 phosphorylation. Description: EGF-induced Erk1/2 phosphorylation in H1975 cells (immunoblot). The test is classed as cell-based, human. The protocol: (§1) For biochemical studies, H1975 cells were serum-starved overnight followed by treatment with vehicle or compound 11a-1 for 3 hours, and then either left unstimulated or stimulated with 5 ng/ml EGF (Sigma, St. Louis, Mo.) for 60 minutes. Lysates were then resolved by SDS-PAGE and the protein phosphorylation levels were detected by immunoblot analysis. Specifically, cells were lysed in lysis buffer (1.0% Nonidet P-40, 50 mM Tris-HCl (pH 7.4), 150 mM NaCl, 5 mM EDTA, 2 mM NaVO3, 10 mM NaF) plus a protease inhibitor mixture available from Roche (Basel, Switzerland) and centrifuged at 10,000 rpm for 5 minutes at 4° C. Supernatants were collected and protein concentration was determined using the BCA protein assay (ThermoFisher Scientific, Rockford, Ill.). Equal amount of protein extracts were mixed with gel loading buffer and separated on SDS-PAGE. After electrophoresis, the proteins were transferred onto nitrocellulose membranes and nonspecific binding was blocked with 5% nonfat dry milk in Tris-buffered saline containing 0.1% Tween-20 (TBS-T). Membranes were then probed with various antibodies overnight at 4° C. on a rocker. After incubation, membranes were washed with TBS-T and incubated with appropriate horseradish peroxidase (HRP)-conjugated secondary antibodies for 1 hour at room temperature. Finally, the proteins on the membranes were detected using SuperSignal West Dura Luminol/Enhancer solution (ThermoFisher Scientific, Rockford, Ill.) and membranes were analyzed using Bio-Rad ChemiDoc XRS Imaging System.

Test [2] concerns Erk1/2 and Akt phosphorylation. Description: Erk1/2 and Akt phosphorylation in SKBR3 cells recovered from Matrigel (immunoblot). The format is cell-based. The note with it: 1 μM to 10 μM, 4 days in Matrigel. The protocol:
Approximately 300,000 SKBR3 cells were seeded into 150 μl of growth factor reduced Matrigel (Corning, Corning, N.Y.) in 35 mm dishes. To 3 dishes for each condition, 2 mL of media containing either 10 μl vehicle (DMSO) or compound 11a-1 at the indicated concentration was then added. Every 24 hours, the cells were imaged with a NIKON SMZ1500 stereomicroscoppe. The cross-sectional area of individual colonies from each image were measured using Adobe Photoshop software. After 4 days, the cells were recovered from the Matrigel and lysed in PLC buffer containing protease inhibitor cocktail (Cat. No. P8340; Sigma-Aldrich, St. Louis, Mo.). Lysates were then resolved by SDS-PAGE and relative levels of the indicated proteins were detected by immunoblot analysis.
For orientation: A western blot detects proteins with antibodies after separation by electrophoresis.

In another test the test system is Paxillin (pY118). Description: Paxillin (pY118) phosphorylation in H1975 cells (immunoblot). The format is cell-based, human. The protocol: as §1
Another test deals with VHR (Homo sapiens (Human), UniProt P51452). Description: PTP selectivity panel, pNPP. The format is biochemical, mammalian. The note with it: pNPP at Km.
For another test, the target named is SHP2 (Homo sapiens (Human), UniProt Q06124). Description: SHP2-catalyzed hydrolysis of p-nitrophenyl phosphate (pNPP). The format is biochemical.
The next test deals with PTPε (Homo sapiens (Human), UniProt P23469). Kind of test: PTP selectivity panel, pNPP. The format is biochemical, mammalian. The conditions noted are these: pNPP at Km.
The next test relates to H1975 cells. Kind of test: H1975 cell proliferation (MTT assay). The test is classed as cell-based. The conditions noted are these: Homo sapiens, NCI-H1975, 48 h, treatment for 2 days. The protocol: Particularly, human non-small cell lung carcinoma cell line H1975 was obtained from the American Tissue Culture Collection and cultured at 37° C. and 5% CO2 in RPMI-1640 (Corning, Corning, N.Y.) supplemented with 10% fetal bovine serum. 3×10^3 cells were seeded in each well of 96-well plates. After treatment with compound 11a-1 for 2 days, cells were incubated with 50 μg/ml MTT (3-(4,5-Dimethylthiazol-2-yl)-2,5-diphenyltetrazolium bromide (Sigma, St. Louis, Mo.) for 3-4 hours. Then, the culture medium was removed, DMSO was added to dissolve the formazan crystals. Wells containing only media were used for background correction. The optical density was measured spectrophotometrically at 540 nm.
(Tetrazolium assays rely on reduction of a dye to a coloured formazan, in cell work by metabolically active cells.)

Sequence of SHP2 (Q06124 whole entry, looked up): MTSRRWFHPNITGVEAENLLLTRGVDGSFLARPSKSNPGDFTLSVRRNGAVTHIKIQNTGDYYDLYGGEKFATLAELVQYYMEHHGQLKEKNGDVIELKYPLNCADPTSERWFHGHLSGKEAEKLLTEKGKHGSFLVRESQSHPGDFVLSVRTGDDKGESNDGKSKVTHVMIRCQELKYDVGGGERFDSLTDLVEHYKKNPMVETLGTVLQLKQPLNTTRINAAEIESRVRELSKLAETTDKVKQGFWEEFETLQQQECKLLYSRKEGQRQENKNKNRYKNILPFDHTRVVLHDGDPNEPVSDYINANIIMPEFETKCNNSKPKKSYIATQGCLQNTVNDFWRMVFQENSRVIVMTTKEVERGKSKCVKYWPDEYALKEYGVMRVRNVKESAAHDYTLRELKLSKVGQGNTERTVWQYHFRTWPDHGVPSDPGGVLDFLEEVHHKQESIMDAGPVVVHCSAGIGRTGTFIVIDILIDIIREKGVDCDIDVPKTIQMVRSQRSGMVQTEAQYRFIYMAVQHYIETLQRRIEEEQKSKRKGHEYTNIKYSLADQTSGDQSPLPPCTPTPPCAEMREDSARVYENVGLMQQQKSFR
Sequence of SHP1 (P29350 whole entry): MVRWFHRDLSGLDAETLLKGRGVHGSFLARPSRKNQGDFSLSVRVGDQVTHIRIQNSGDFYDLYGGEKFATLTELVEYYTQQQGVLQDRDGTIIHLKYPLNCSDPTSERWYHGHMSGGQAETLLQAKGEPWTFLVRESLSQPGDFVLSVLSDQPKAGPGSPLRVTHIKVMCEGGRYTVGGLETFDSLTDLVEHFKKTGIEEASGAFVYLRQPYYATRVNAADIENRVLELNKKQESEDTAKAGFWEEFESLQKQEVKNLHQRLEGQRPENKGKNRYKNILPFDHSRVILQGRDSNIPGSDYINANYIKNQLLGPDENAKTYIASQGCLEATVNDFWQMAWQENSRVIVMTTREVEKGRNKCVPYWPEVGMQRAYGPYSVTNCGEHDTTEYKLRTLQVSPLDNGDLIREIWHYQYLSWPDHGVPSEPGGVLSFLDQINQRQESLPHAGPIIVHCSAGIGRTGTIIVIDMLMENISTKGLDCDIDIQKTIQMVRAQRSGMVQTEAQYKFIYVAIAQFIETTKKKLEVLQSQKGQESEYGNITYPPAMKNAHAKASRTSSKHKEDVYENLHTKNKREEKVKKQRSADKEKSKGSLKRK
Sequence of VHR (P51452 whole entry, species assumed): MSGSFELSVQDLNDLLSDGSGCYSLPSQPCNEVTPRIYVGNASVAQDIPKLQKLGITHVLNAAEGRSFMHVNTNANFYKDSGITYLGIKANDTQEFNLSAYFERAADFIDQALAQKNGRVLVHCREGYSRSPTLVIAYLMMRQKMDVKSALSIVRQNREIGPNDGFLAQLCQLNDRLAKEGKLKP
Sequence of PTPH1 (P26045 whole entry, species assumed): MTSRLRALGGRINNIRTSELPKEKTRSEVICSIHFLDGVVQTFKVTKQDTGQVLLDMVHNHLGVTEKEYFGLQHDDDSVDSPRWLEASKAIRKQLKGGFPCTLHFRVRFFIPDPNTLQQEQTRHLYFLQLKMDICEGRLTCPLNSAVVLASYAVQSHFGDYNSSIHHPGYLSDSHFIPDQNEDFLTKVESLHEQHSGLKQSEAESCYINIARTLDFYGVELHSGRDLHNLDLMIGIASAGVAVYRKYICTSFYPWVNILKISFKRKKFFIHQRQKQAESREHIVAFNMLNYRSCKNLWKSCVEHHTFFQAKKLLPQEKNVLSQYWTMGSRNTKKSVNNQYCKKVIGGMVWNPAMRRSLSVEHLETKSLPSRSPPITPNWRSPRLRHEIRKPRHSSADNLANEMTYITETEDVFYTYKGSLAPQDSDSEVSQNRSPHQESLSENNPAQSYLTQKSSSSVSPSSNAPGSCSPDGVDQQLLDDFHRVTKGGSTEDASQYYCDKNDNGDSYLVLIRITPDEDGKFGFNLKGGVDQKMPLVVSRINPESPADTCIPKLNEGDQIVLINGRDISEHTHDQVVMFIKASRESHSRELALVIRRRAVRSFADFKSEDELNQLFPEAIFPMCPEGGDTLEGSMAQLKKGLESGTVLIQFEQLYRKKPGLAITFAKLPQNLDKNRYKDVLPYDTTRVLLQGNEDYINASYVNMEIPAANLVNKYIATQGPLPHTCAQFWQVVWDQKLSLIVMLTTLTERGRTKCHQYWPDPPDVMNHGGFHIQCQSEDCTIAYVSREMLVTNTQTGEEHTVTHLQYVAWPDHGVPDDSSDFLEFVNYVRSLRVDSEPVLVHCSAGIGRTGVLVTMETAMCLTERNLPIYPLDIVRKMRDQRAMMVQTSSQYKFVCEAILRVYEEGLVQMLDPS
Sequence of PTPα (P18433 whole entry, looked up): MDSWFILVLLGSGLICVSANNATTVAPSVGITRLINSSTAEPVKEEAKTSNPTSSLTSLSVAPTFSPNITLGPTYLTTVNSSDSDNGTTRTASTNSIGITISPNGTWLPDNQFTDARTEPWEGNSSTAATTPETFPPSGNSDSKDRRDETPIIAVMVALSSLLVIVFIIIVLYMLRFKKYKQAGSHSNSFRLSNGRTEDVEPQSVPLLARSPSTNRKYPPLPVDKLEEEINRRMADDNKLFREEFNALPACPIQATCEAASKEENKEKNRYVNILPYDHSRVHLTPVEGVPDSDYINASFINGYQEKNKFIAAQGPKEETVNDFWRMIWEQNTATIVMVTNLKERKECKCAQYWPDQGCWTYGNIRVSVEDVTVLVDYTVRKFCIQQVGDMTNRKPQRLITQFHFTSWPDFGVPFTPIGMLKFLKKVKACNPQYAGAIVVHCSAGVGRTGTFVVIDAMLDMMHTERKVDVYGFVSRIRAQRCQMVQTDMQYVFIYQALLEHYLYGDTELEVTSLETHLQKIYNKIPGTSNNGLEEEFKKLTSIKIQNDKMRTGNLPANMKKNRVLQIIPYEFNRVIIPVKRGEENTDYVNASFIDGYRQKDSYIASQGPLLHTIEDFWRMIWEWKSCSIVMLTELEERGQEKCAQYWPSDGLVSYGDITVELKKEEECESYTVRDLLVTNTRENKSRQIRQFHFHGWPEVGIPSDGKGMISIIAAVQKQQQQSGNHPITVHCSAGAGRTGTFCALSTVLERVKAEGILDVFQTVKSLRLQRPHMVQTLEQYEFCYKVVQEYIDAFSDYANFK
Sequence of PTP1B (P18031 whole entry, species assumed): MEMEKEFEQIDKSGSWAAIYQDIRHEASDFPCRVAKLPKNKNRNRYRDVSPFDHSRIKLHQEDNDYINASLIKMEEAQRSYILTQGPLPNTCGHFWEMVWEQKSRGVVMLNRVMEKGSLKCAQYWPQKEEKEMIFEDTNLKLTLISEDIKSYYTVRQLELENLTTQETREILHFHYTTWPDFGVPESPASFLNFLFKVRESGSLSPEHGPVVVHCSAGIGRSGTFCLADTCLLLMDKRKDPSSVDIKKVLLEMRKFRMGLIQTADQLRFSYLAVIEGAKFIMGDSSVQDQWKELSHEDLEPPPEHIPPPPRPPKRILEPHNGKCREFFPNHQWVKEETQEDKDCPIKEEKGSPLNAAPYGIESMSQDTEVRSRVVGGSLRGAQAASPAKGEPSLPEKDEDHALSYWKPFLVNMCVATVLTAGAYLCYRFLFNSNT
Sequence of PEZ (Q15678 whole entry, species assumed): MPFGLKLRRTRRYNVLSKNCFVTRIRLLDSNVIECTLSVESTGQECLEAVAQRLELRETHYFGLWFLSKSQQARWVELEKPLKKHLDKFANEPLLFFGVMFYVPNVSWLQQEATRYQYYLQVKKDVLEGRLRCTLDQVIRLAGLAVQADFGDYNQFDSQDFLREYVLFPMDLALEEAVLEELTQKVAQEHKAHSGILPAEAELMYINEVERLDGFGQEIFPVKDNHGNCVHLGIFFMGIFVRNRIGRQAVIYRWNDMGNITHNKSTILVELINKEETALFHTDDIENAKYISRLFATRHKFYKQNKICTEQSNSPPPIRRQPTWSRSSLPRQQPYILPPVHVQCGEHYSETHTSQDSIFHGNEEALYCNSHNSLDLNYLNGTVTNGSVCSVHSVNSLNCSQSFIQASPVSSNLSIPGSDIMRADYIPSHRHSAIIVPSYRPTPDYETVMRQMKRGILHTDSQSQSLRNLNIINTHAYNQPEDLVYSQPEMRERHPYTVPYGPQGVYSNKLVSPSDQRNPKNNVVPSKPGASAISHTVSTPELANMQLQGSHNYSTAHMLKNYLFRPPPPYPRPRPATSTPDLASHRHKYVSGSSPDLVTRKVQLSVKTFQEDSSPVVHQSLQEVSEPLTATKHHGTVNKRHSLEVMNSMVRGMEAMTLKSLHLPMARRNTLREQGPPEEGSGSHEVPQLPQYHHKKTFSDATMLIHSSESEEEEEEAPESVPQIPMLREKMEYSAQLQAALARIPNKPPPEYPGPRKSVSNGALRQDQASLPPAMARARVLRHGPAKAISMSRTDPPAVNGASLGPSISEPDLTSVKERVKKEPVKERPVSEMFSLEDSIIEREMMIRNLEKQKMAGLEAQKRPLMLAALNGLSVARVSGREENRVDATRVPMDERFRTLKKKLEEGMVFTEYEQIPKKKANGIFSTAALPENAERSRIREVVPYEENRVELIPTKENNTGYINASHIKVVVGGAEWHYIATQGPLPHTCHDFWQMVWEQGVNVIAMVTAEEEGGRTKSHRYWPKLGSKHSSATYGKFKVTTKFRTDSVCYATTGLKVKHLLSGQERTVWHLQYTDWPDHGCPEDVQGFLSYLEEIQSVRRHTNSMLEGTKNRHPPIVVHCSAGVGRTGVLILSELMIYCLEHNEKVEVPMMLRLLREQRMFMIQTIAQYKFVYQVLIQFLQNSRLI

For `Cn1c(-c2cccc(NC(=O)C(=O)Nc3ccc(-c4ccsc4)cc3)c2)c(I)c2cc(C(=O)O)c(O)cc21` [11a-1, 6-hydroxy-3-iodo-1-methyl-2-(3-(2-oxo-2-((4-(thiophen-3-yl)phenyl)amino)acetamido)phenyl)-1H-indole-5-carboxylic acid], the “preference for SHP2 over SHP1” value on SHP1 amounted to 7 fold. Further, the IC50 was 1440 ± 40 nM against SHP1 (pNPP at Km); 1070 ± 70 nM at PTPH1; 5300 ± 200 nM against PEZ; 3300 ± 200 nM against PTPμ; 1090 ± 40 nM at mPTPA; > 100000 nM at PTPα. Besides, the IC50 is 2900 ± 100 nM against MKP5; 3190 ± 90 nM on VHR; 200 ± 20 nM against SHP2 (pNPP substrate, pH 7.0, 25° C.); > 20000 nM against PTPε; 170 ± 20 nM with H1975 cells. In addition, at PTP1B, the “preference for SHP2 over PTP1B” value worked out at 11 fold. Moreover, the “reduction of Erk1/2 phosphorylation” value in test [1] (H1975 cells, 2 μM) is listed as 40%. Also, in [1] (H1975 cells, dose-dependent), the “effect on EGF-induced Erk1/2 phosphorylation” value was “effectively reduced; also recorded: decreased”. In addition, the “ability to inhibit EGF-mediated Erk1/2 activation in SHP2 knocked down cells” value in test [1] (SHP2 knocked down with siRNA) is “blunted”. In test [2], the “Erk1/2 and Akt phosphorylation in SKBR3 cells” value was “concordantly inhibited”. In the test on Paxillin (pY118) (2 μM), the “augmentation of Paxillin phosphorylation” value stood at 30%. In addition, the “effect on EGF induced Paxillin (Y118) phosphorylation” value in the test on Paxillin (pY118) (dose-dependent) is given as “dose-dependently increased”. On SHP2, the “selectivity for SHP2 over a panel of 20 mammalian PTPs” value is “over 5 fold”.
